Reference: US20030186352A1, “Apicomplexan chorismate synthase sequences and an inhibitor of the shikimate pathway” (priority 1998, published 2003)
≈ marks a conversion by molar mass, not a printed value.

How the values were obtained:
[1] = tested on: W2 clone of Plasmodium falciparum; assay: P. falciparum in vitro growth assay (Milhous et al.), W2 clone; assay type: cell-based; conditions: Plasmodium falciparum, W2
C. parvum = C. parvum infection of MDBKF5D2 cell monolayers, immunofluorescence assay at 48 hours; assay type: cell-based, Cryptosporidium parvum; conditions: for approximate 95% Cl count (mean parasite count per field): media alone ~1800
Procedure: C. parvum oocysts at 50,000/well were incubated at 37° C. (8% CO2) on confluent MDBKF5D2 cell monolayers in 96 well microtiter plates with the following concentrations of each drug. […] The level of infection of each well was determined and analyzed by an immunofluorescence assay at 48 hours using an antibody to C. parvum sporozoites made in rabbits at a concentration of 0.1%. Fluorescein-conjugated goat anti-rabbit antibody was used at a concentration of 1%.
C. parvum oocysts at 50,000/well were incubated with each drug (PRM=paromomycin which is the positive control, NPMG, gabaculine, SHAM, 8-hydroxyquinoline) at 37° C. (8% carbon dioxide) on confluent MDBKF5D2 cell monolayers in 96 well microtiter plates. The level of infection of each well was determined and analyzed by an immunofluorescence assay at 48 hours using as an antibody C. parvum sporozoite rabbit anti-serum (0.1%), and using fluorescein-conjugated goat anti-rabbit antibody (1%). Data are expressed as mean parasite count/field when 16 fields counted at 10× magnification “s.d. of the mean” (FIG. 6).

[2] = tested on: T. gondii tachyzoites (RH strain); assay: T. gondii growth inhibition in HFF monolayers, tritiated uracil uptake; assay type: cell-based, Toxoplasma gondii
Procedure: The improvements are based on microscopic visual imspection of infected and inhibitor treated cultures, and on quantitation of nucleic acid synthesis of the parasite by measure intake of ^3H uracil onto the parasite's nucleic acid. Uracil is not utilized by mammalian cells. […] Only the RH strain tachyzoites, cultured for up to 72 hours, had been used in previously reported assays. The use of Me49, Ptg, and R5 mutant are unique aspects of the methods used in these assays in this invention.
(§1) In these assays toxicity of a candidate inhibitor was assessed by its ability to prevent growth of human foreskin fibroblasts (HFF) after 4 days and after 8 days as measured by tritiated thymidine uptake and microscopic evaluation. Confluent monolayers of HFF were infected with tachyzoites and bradyzoites. Inhibitor was added one hour later. Non-toxic doses were used in parasite growth inhibition assays. Parasite growth was measured by ability to incorporate tritiated uracil during the last 18 hours of culture.
(§2) First the toxicity of gabaculine was assessed by its ability to prevent growth of human foreskin fibroblasts (HFF) as measured by ^3H-thymidine uptake and microscopic evaluation. Non-toxic doses were used in parasite growth inhibition assays. in vitro parasite growth inhibition assays included confluent monolayers of HFF infected with tachyzoites (RH) or mutant Me49 (R5). Gabaculine was added 1 hour later. Parasite growth was measured by the ability to incorporate 3H-uracil during the last 18 hours of culture. In addition, parasite growth was evaluated microscopically in Giemsa stained slides.
Confluent monolayers of HFF cells, grown in 96-well plates are infected with T. gondii tachyzoites of the RH strain and serial dilutions of anti-microbial compound are applied 1 hour later. T. gondii growth is assessed in these cultures by their ability to incorporate tritiated uracil (2.5 μCi/well) added during the last 18 hours of culture. After harvesting cells with an automatic cell harvester, uracil incorporation is measured by liquid scintillation.

[3] = tested on: D6 clone of Plasmodium falciparum; assay: P. falciparum in vitro growth assay (Milhous et al.), D6 clone; assay type: cell-based; conditions: Plasmodium falciparum, D6 clone
P. falciparum = P. falciparum in vitro growth assay, clone not stated; assay type: cell-based, Plasmodium falciparum
Procedure: This assay is performed in folate deficient RPMI 1640 over a 66 hour incubation in plasma as described by Milhous et al. (1985). Both the W2 clone DHFR resistant phenotype and the D6 clone are used (Odula et al., 1988) (Table 3).

EPSP synthase = assay: T. gondii EPSP synthase enzyme assay (HPLC detection of EPSP); assay type: biochemical; conditions: 1 mM
Procedure: Assays for 4-aminobenzoate and 4-amino-4-deoxychorismate are performed as described previously.” Enzyme Assays: The 5-enolpyruvylshikimate-3-phosphate (EPSP) synthase assay entailed monitoring the generation of EPSP using HPLC. Reaction components were separated using a Hypersil H3APS2 HPLC column (Hichrom Limited, Reading, UK) and a NaH2PO4 elution gradient (50-400 mM). UV spectra (200-300 nm) of the colume eluate were collected to identify eluants. […] The peaks at 215 nm were integrated; the EPSP produced was quantified using a standard curve of authentic EPSP. Parasite extracts were produced at 4° C. by suspension of pure tachyzoites in extraction buffer (50 mM Tris.HCl, pH 7.5, containing complete TM protease inhibitor cocktail [Boehringer Mannheim, 1 tablet per 50 ml buffer]), sonication 3 times for 3 seconds at 30 second intervals, and centrifugation at 12000 g for 15 min. The resulting supernatant was diluted 6-fold with extraction buffer and loaded onto a ResourceQ column (1 ml, Pharmacia) equilibrated with extraction buffer. The bound protein was eluted in a single step using extraction buffer containing 500 mM Kcl. The eluted material was used for enzyme assay. The assay mix contained 1 mM phosphoenolpyruvate, 1 mM SP and 50 mM HEPES, pH 7.5. […] Protein concentrations of lysates were determined using the Lowry method. […]

[4] = tested on: human foreskin fibroblasts (HFF); assay: Toxicity to human foreskin fibroblasts, tritiated thymidine uptake and microscopy; assay type: cell-based; conditions: similar concentrations (20 mM)
Procedure: as §1, §2
Inhibitor compounds are tested over a range of concentrations for toxicity against mammalian cells by assessing their ability to prevent cell growth as measured by tritiated thymidine uptake and inspection of the monolayer using microscopic evaluation. […]

[5] = tested on: mutant R5 strain of T. gondii; assay: Growth of mutant R5 strain of T. gondii in HFF, uracil uptake over 8 days; assay type: cell-based, Toxoplasma gondii; conditions: 20 mM gabaculine or P/S, 8 days in culture
Procedure: Improvements were developed in the assays reported by Mack et al. (1984) and Holfels et al. (1994) to measure T. gondii replication in tissue culture. The improvements are based on microscopic visual imspection of infected and inhibitor treated cultures, and on quantitation of nucleic acid synthesis of the parasite by measure intake of ^3H uracil onto the parasite's nucleic acid. Uracil is not utilized by mammalian cells. […]
First the toxicity of gabaculine was assessed by its ability to prevent growth of human foreskin fibroblasts (HFF) as measured by ^3H-thymidine uptake and microscopic evaluation. […] Parasite growth was measured by the ability to incorporate 3H-uracil during the last 18 hours of culture. In addition, parasite growth was evaluated microscopically in Giemsa stained slides.
This mutant strain is atovaquone resistant and posseses certain characterisitics of the tachyzoite stage and certain characteristics of the bradyzoite stage. T. gondii growth is measure by their ability to incorporate tritiated uracil and is expressed as counts/minute (CPM) on the Y-axis. […]

## O=C(O)CNCP(=O)(O)O [NPMG, N-(phosphonomethyl) glycine]
[1]
  IC50: 1.72 µg/mL (≈ 10.1 µM)
  IC90: 3.4 µg/mL (≈ 20.1 µM)
C. parvum
  product rescue by PABA of NPMG effect on C. parvum: not abrogated by PABA
C. parvum; NPMG 0.45 μg/ml
  approximate 95% Cl count (mean parasite count per field): ~1200 count/field
C. parvum; NPMG 4.5 μg/ml
  approximate 95% Cl count (mean parasite count per field): ~900 count/field
C. parvum; NPMG 0.045
  approximate 95% Cl count (mean parasite count per field): ~1200 count/field
[2]; NPMG 3.12 mM, 4 day assay, medium around 72,000
  restriction of CPM (tritiated uracil incorporation): around 60%
[2]; NPMG 4.5 mM, 4 days, medium around 72,000, no RH around 2,000 CPM
  counts (tritiated uracil incorporation): about 12,000 CPM
[2]; PABA at increasing concentrations added to cultures
  product rescue by PABA of NPMG inhibition of nucleic acid synthesis: PABA abrogates the inhibitory effects
[2]; Toxoplasma gondii, 96 h, NPMG 4.5 mM, 4 day assay, read-out: inhibition of parasite growth
  inhibition at 4500 µM: ~80%
[3]; read-out: IC 50
  IC50: 0.823 µg/mL (≈ 4.87 µM)
[3]; read-out: IC 90
  IC90: 2.51 µg/mL (≈ 14.8 µM)
P. falciparum; PABA and folate
  product rescue of glyphosate inhibition of in vitro growth of asexual erythrocytic forms: PABA and folate antagonism of growth inhibition
EPSP synthase
  inhibition of T. gondii EPSP synthase enzyme activity: inhibition of EPSP synthase enzyme activity

## NC1C=CC=C(C(=O)O)C1 (stereo not drawn) [gabaculine, 3-amino-2,3-dihydrobenzoic acid]
[4]
  toxicity to the foreskin fibroblasts: no toxicity
C. parvum; gabaculine 0.2 μg/ml
  approximate 95% Cl count (mean parasite count per field): ~1300 count/field
C. parvum; gabaculine 2 μg/ml
  approximate 95% Cl count (mean parasite count per field): ~600 count/field
C. parvum; gabaculine 20 μg/ml
  approximate 95% Cl count (mean parasite count per field): ~200 count/field
[2]; RH, 20 mM gabaculine or P/S, uracil CPM
  parasite growth over the 8 day time course: restricted
[2]; Toxoplasma gondii, 96 h, gabaculine 5 mM, 4 days, medium about 36,000 CPM
  inhibition at 5000 µM: ~60%
[2]; gabaculine 5 mM, 4 day assay, medium around 45,000 CPM
  restriction of CPM (tritiated uracil incorporation): around 50%
[2]; gabaculine 20 mM, 4 days, medium around 45,000, no RH around 2,000 CPM
  counts (tritiated uracil incorporation): about 5,000 CPM
[5]
  period over which parasite growth was restricted: over the first 6 days of culture, after which a marked increase in parasite growth was detected
P. falciparum; Plasmodium falciparum
  IC50: ≥ 45 µg/mL
